Test results as given in patent US10377778B2, “Lead and thorium compounds” (Sciencons AS, priority 2017, dated 2019).

Experiments:
PSMA-positive xenografts = test: Biodistribution of single targeting solution (purified ^212Pb-ligand) in mice with PSMA-positive xenografts; format: in vivo
Description: Using a ^212Pb/^224Ra solution for reaction with p-SCN-Bn-TCMC-PSMA ligand 1 as described, purified ^212Pb-p-SCN-Bn-TCMC-PSMA ligand 1 was purified using a Sephadex G-10 gel filtration column and about 30 kBq and 300 ng of the purified radioligand product was injected per animal. […] The tumor-to-tissue ratios (Table 4) indicates suitability for radioligand targeting with ^212Pb.

[1] = test system: C4-2 PSMA-positive xenografts; test: Biodistribution of radiolabelled ligands (^224Ra/^212Pb solutions, ^177Lu) in nude mice with C4-2 xenografts
Description: Each group usually consisted of three mice. […] Approximately 16 kBq of ^224Ra/^212Pb was injected in each animal, i.e., approximately 0.2 nmol of ligand per mouse. Animals were given anaesthesia and sacrificed by cervical dislocation followed by dissection and harvesting of tissue-, blood- and urine samples. The samples were weighed and counted on a gamma counter.
Three mice in each group. […] The molar concentration was the same for both products, i.e., 12.5 nmol per MBq. Approximately 16 kBq of ^224Ra/^212Pb was injected in each animal, i.e., approximately 0.2 nmol of ligand per mouse. Animals were given anaesthesia and sacrificed by cervical dislocation followed by dissection and harvesting of tissue-, blood- and urine samples. The samples were weighed and counted on a gamma counter.
Methods: Tumor and kidney uptake of ^212Pb-labeled p-SCN-Bn-TCMC-PSMA ligand 1 and ^177Lu-labeled PSMA-617 was compared at 1 hours and 4 hours after administration of the products by intravenous injection into nude mice with C4-2 xenografts as described in Example 9.

[2] = 4 h after i.v. injection, ^224Ra/^212Pb solution

In the case of `NC(=O)CN1CCN(CC(N)=O)CCN(CC(N)=O)C(Cc2ccc(NC(=S)NCC3CCC(C(=O)NC(Cc4ccc5ccccc5c4)C(=O)NCCCCC(NC(=O)NC(CCC(=O)O)C(=O)O)C(=O)O)CC3)cc2)CN(CC(N)=O)CC1.[212Pb+2]` (stereo not drawn) [^212Pb-p-SCN-Bn-TCMC-PSMA ligand 1], the Tumor/Femur ratio (PSMA-positive xenografts; 1 h) is reported as 30.4, the Tumor/blood ratio (PSMA-positive xenografts; 1 h) is reported as 14.9 and the Tumor/kidneys ratio (PSMA-positive xenografts; 1 h) is reported as 0.41. It also gave a Tumor/muscle ratio (PSMA-positive xenografts; 1 h) of 42.6, a Tumor/Femur ratio (PSMA-positive xenografts; 2 h) of 39.7 and a Tumor/blood ratio (PSMA-positive xenografts; 2 h) of 29.4. The Tumor/kidneys ratio (PSMA-positive xenografts; 2 h) was 0.62, the Tumor/muscle ratio (PSMA-positive xenografts; 2 h) was 72.1 and the Tumor/Femur ratio (PSMA-positive xenografts; 4 h) was 24.8. The Tumor/blood ratio (PSMA-positive xenografts; 4 h) was 30.7, the Tumor/kidneys ratio (PSMA-positive xenografts; 4 h) was 1.54 and the Tumor/muscle ratio (PSMA-positive xenografts; 4 h) was 61.5. For the same compound, the Tumor/Femur ratio (PSMA-positive xenografts; 8 h) was 19.8, the Tumor/blood ratio (PSMA-positive xenografts; 8 h) was 112.7 and the Tumor/kidneys ratio (PSMA-positive xenografts; 8 h) was 3.60. For the same compound, the Tumor/muscle ratio (PSMA-positive xenografts; 8 h) was 366.2, the “Biodistribution, Bladder” value (PSMA-positive xenografts; 1 h post injection) was 36.86 % ID/g and the “Biodistribution, Bladder” value (PSMA-positive xenografts; 2 h post injection) was 6.85 % ID/g. For the same compound, the “Biodistribution, Bladder” value (PSMA-positive xenografts; 4 h post injection) was 3.53 % ID/g, the “Biodistribution, Bladder” value (PSMA-positive xenografts; 8 h post injection) was 0.26 % ID/g and the “Biodistribution, Blood” value (PSMA-positive xenografts; 1 h post injection) was 1.77 % ID/g. The “Biodistribution, Blood” value (PSMA-positive xenografts; 2 h post injection) was 0.54 % ID/g, the “Biodistribution, Blood” value (PSMA-positive xenografts; 4 h post injection) was 0.46 % ID/g and the “Biodistribution, Blood” value (PSMA-positive xenografts; 8 h post injection) was 0.13 % ID/g. The “Biodistribution, Brain” value (PSMA-positive xenografts; 1 h post injection) was 0.61 % ID/g, the “Biodistribution, Brain” value (PSMA-positive xenografts; 2 h post injection) was 0.04 % ID/g and the “Biodistribution, Brain” value (PSMA-positive xenografts; 4 h post injection) was 0.07 % ID/g. The “Biodistribution, Brain” value (PSMA-positive xenografts; 8 h post injection) was 0.02 % ID/g, the “Biodistribution, Femur” value (PSMA-positive xenografts; 1 h post injection) was 0.87 % ID/g and the “Biodistribution, Femur” value (PSMA-positive xenografts; 2 h post injection) was 0.40 % ID/g. For the same compound, the “Biodistribution, Femur” value (PSMA-positive xenografts; 4 h post injection) was 0.57 % ID/g, the “Biodistribution, Femur” value (PSMA-positive xenografts; 8 h post injection) was 0.74 % ID/g and the “Biodistribution, Heart” value (PSMA-positive xenografts; 1 h post injection) was 0.78 % ID/g. The “Biodistribution, Heart” value (PSMA-positive xenografts; 2 h post injection) was 0.20 % ID/g, the “Biodistribution, Heart” value (PSMA-positive xenografts; 4 h post injection) was 0.52 % ID/g and the “Biodistribution, Heart” value (PSMA-positive xenografts; 8 h post injection) was 0.09 % ID/g. For the same compound, the “Biodistribution, Kidneys” value (PSMA-positive xenografts; 1 h post injection) was 63.96 % ID/g, the “Biodistribution, Kidneys” value (PSMA-positive xenografts; 2 h post injection) was 25.41 % ID/g and the “Biodistribution, Kidneys” value (PSMA-positive xenografts; 4 h post injection) was 9.19 % ID/g. For the same compound, the “Biodistribution, Kidneys” value (PSMA-positive xenografts; 8 h post injection) was 4.07 % ID/g, the “Biodistribution, Large intestine” value (PSMA-positive xenografts; 1 h post injection) was 0.25 % ID/g and the “Biodistribution, Large intestine” value (PSMA-positive xenografts; 2 h post injection) was 0.39 % ID/g. The “Biodistribution, Large intestine” value (PSMA-positive xenografts; 4 h post injection) was 0.18 % ID/g, the “Biodistribution, Large intestine” value (PSMA-positive xenografts; 8 h post injection) was 0.17 % ID/g and the “Biodistribution, Liver” value (PSMA-positive xenografts; 1 h post injection) was 2.39 % ID/g. For the same compound, the “Biodistribution, Liver” value (PSMA-positive xenografts; 2 h post injection) was 1.33 % ID/g, the “Biodistribution, Liver” value (PSMA-positive xenografts; 4 h post injection) was 1.55 % ID/g and the “Biodistribution, Liver” value (PSMA-positive xenografts; 8 h post injection) was 1.25 % ID/g. For the same compound, the “Biodistribution, Lungs” value (PSMA-positive xenografts; 1 h post injection) was 1.19 % ID/g, the “Biodistribution, Lungs” value (PSMA-positive xenografts; 2 h post injection) was 0.40 % ID/g and the “Biodistribution, Lungs” value (PSMA-positive xenografts; 4 h post injection) was 0.75 % ID/g. The “Biodistribution, Lungs” value (PSMA-positive xenografts; 8 h post injection) was 0.17 % ID/g, the “Biodistribution, Muscle” value (PSMA-positive xenografts; 1 h post injection) was 0.62 % ID/g and the “Biodistribution, Muscle” value (PSMA-positive xenografts; 2 h post injection) was 0.22 % ID/g. The “Biodistribution, Muscle” value (PSMA-positive xenografts; 4 h post injection) was 0.23 % ID/g, the “Biodistribution, Muscle” value (PSMA-positive xenografts; 8 h post injection) was 0.04 % ID/g and the “Biodistribution, Prostate” value (PSMA-positive xenografts; 1 h post injection) was 13.95 % ID/g. The “Biodistribution, Prostate” value (PSMA-positive xenografts; 2 h post injection) was 3.80 % ID/g, the “Biodistribution, Prostate” value (PSMA-positive xenografts; 4 h post injection) was 1.48 % ID/g and the “Biodistribution, Prostate” value (PSMA-positive xenografts; 8 h post injection) was −0.10 % ID/g. For the same compound, the “Biodistribution, Salivary gland” value (PSMA-positive xenografts; 1 h post injection) was 0.72 % ID/g, the “Biodistribution, Salivary gland” value (PSMA-positive xenografts; 2 h post injection) was 0.32 % ID/g and the “Biodistribution, Salivary gland” value (PSMA-positive xenografts; 4 h post injection) was 0.34 % ID/g. The “Biodistribution, Salivary gland” value (PSMA-positive xenografts; 8 h post injection) was 0.15 % ID/g, the “Biodistribution, Skin” value (PSMA-positive xenografts; 1 h post injection) was 1.70 % ID/g and the “Biodistribution, Skin” value (PSMA-positive xenografts; 2 h post injection) was 0.47 % ID/g. For the same compound, the “Biodistribution, Skin” value (PSMA-positive xenografts; 4 h post injection) was 0.42 % ID/g, the “Biodistribution, Skin” value (PSMA-positive xenografts; 8 h post injection) was 0.23 % ID/g and the “Biodistribution, Skull” value (PSMA-positive xenografts; 1 h post injection) was 0.77 % ID/g. For the same compound, the “Biodistribution, Skull” value (PSMA-positive xenografts; 2 h post injection) was 0.38 % ID/g, the “Biodistribution, Skull” value (PSMA-positive xenografts; 4 h post injection) was 0.37 % ID/g and the “Biodistribution, Skull” value (PSMA-positive xenografts; 8 h post injection) was 0.63 % ID/g. For the same compound, the “Biodistribution, Small intestine” value (PSMA-positive xenografts; 1 h post injection) was 0.34 % ID/g, the “Biodistribution, Small intestine” value (PSMA-positive xenografts; 2 h post injection) was 0.23 % ID/g and the “Biodistribution, Small intestine” value (PSMA-positive xenografts; 4 h post injection) was 0.30 % ID/g. For the same compound, the “Biodistribution, Small intestine” value (PSMA-positive xenografts; 8 h post injection) was 0.08 % ID/g, the “Biodistribution, Spleen” value (PSMA-positive xenografts; 1 h post injection) was 1.24 % ID/g and the “Biodistribution, Spleen” value (PSMA-positive xenografts; 2 h post injection) was 0.44 % ID/g. For the same compound, the “Biodistribution, Spleen” value (PSMA-positive xenografts; 4 h post injection) was 0.54 % ID/g, the “Biodistribution, Spleen” value (PSMA-positive xenografts; 8 h post injection) was 0.36 % ID/g and the “Biodistribution, Stomach” value (PSMA-positive xenografts; 1 h post injection) was 0.16 % ID/g. The “Biodistribution, Stomach” value (PSMA-positive xenografts; 2 h post injection) was 0.22 % ID/g, the “Biodistribution, Stomach” value (PSMA-positive xenografts; 4 h post injection) was 0.10 % ID/g and the “Biodistribution, Stomach” value (PSMA-positive xenografts; 8 h post injection) was 0.09 % ID/g. The “Biodistribution, Testes” value (PSMA-positive xenografts; 1 h post injection) was 4.41 % ID/g, the “Biodistribution, Testes” value (PSMA-positive xenografts; 2 h post injection) was 0.56 % ID/g and the “Biodistribution, Testes” value (PSMA-positive xenografts; 4 h post injection) was 0.38 % ID/g. For the same compound, the “Biodistribution, Testes” value (PSMA-positive xenografts; 8 h post injection) was 0.12 % ID/g, the “Biodistribution, Tumor” value (PSMA-positive xenografts; 1 h post injection) was 26.44 % ID/g and the “Biodistribution, Tumor” value (PSMA-positive xenografts; 2 h post injection) was 15.87 % ID/g. For the same compound, the “Biodistribution, Tumor” value (PSMA-positive xenografts; 4 h post injection) was 14.14 % ID/g, the “Biodistribution, Tumor” value (PSMA-positive xenografts; 8 h post injection) was 14.65 % ID/g and the “Biodistribution, Urine” value (PSMA-positive xenografts; 1 h post injection) was 253.36 % ID/g. For the same compound, the “Biodistribution, Urine” value (PSMA-positive xenografts; 2 h post injection) was 250.85 % ID/g, the “Biodistribution, Urine” value (PSMA-positive xenografts; 4 h post injection) was 32.12 % ID/g and the “Biodistribution, Urine” value (PSMA-positive xenografts; 8 h post injection) was 6.76 % ID/g. For the same compound, the Average tumor-to-kidney ratio ([1]; 1-hour point after administration) was 0.40, the Tumor-to-kidney ratio ([1]; 4-hour timepoint) was 1.7 and the “Uptake ratio to ^212Pb-PSMA-617, blood” value [1, 2] was 1.21. For the same compound, the “Uptake ratio to ^212Pb-PSMA-617, kidneys” value [1, 2] was 0.20, the “Uptake ratio to ^212Pb-PSMA-617, liver” value [1, 2] was 2.67 and the “Uptake ratio to ^212Pb-PSMA-617, spleen” value [1, 2] was 0.71. The “Uptake ratio to ^212Pb-PSMA-617, tumor” value ([1]; 4 h after i.v. injection, ^224Ra/^212Pb solution, about 0.2 nmol ligand per mouse) was 1.35, the “Kidney uptake (average)” value ([1]; 4 hours after i.v. injection) was 8.1 % ID/g and the “Tumor uptake (average)” value ([1]; 4 hours after i.v. injection) was 13.9 % ID/g.
